The record followed here is patent US6906237B2, “Vivo assay for anti angiogenic compounds” (priority 2001, dated 2005).

The test system of assay [1] is HDMEC-GT derived microvessels. The assay can be described thus: SCID mice xenografting of HDMEC-GT in Matrigel with pro-angiogenic factors; human vessel density by human type IV collagen micromorphometry. The class given is in vivo, human cells in SCID mice. The conditions noted are these: for human vessel density (human type IV collagen micromorphometry), result in words: VEGF 2 μg/ml or FGF-2 150 ng/ml in Matrigel with HDMEC-GT, two weeks after implantation, versus controls. The procedure: (§1) This procedure is based on a modification of the mouse angiogenesis model previously described^41. Two-three week old male or female SCID mice (Taconic, Germantown, N.Y.) were used as hosts for all implants. Primary HDMEC and HDMEC-T were harvested, washed twice and re-suspended in serum-free EGM-2 basal medium at the concentration of 1×10^5/μl. Ten μl of cells were mixed with 0.5 ml of Matrigel on ice and the mixture was implanted in the ventral midline thoracic tissue of each mouse by subcutaneous injection using a #25 needle. Up to three separate injections could be performed on a single mouse. For some experiments, recombinant human VEGF165 (2 μg/ml) (R&D systems, Minneapolis, Minn.) or bovine FGF-2 (150 ng/ml) (R&D systems, Minneapolis, Minn.) were added to the mixture. When tumor cells (HT1080 and 293, ATCC) or primary human dermal fibroblasts^38 were injected, the procedure remained the same except basal D-MEM medium replaced EGM-2.
(§2) Matrigel implants were removed at 1, 2, 4 and 6 wk following xenografting, fixed in 10% buffered formalin overnight, paraffin-embedded and sectioned. H&E stained thin sections were prepared at Pan-insular Histopathology laboratory (Los Gatos, Calif.). For immunofluoresence, thin sections were deparaffinized and antigens retrieved in 10 mM citric acid (pH 6.0) by microwaving sections for 2×7 min. Sections were then incubated with anti-human type IV collagen IgG (Sigma, St. Louis, Mo.) primary antibody, followed by washing and Cy-3 conjugated secondary IgG according to standard protocols. […] For micromorphometry, 5 separate 20× fields were randomly selected per tissue section and the number of annular structures were counted and averaged. Unless specifically stated otherwise, 3 different sections were viewed per implant and replicate implants were grafted for each experimental condition (FIGS. 3 and 6).
Background: A xenograft is tissue or cells of one species grown in another, often human tumour cells in immunodeficient mice.

The test system of assay [2] is host murine blood vessels. The assay can be described thus: Host vessel invasion of Matrigel implants in SCID mice without human EC. It counts as in vivo. The conditions noted are these: FGF-2 alone in Matrigel, no HDMEC. The procedure:
as §1
Matrigel implants were removed at 1, 2, 4 and 6 wk following xenografting, fixed in 10% buffered formalin overnight, paraffin-embedded and sectioned. H&E stained thin sections were prepared at Pan-insular Histopathology laboratory (Los Gatos, Calif.). […] For micromorphometry, 5 separate 20× fields were randomly selected per tissue section and the number of annular structures were counted and averaged. […]

Assay [3] has as its system HDMEC-GT derived microvessels. Kind of assay: Endostatin blocking experiments: HDMEC-GT co-implanted with endostatin cDNA-transfected HEK293 cells in Matrigel in SCID mice. The class given is in vivo, human cells in SCID mice. The conditions noted are these: 1:10 ratio HEK293endo to HDMEC-GT, implants removed after one and two weeks, versus sham-transfected HEK293lacZ. On the procedure:
as §2
For digital analysis of eGFP fluorescence images we used a novel algorithm (Moss Filter™) to determine the total amount of vascularization in each implant section. This filter determines whether or not each pixel is part of the fluorescently-labeled vascular region. The filter converts the original (8-bit) digital image into a binary image. Pixel values equal to 1 indicate vascularization, whereas zero values indicate no vascularization. The total amount of vascularization in each implant section is obtained by summing all the values in the binary image.
Inhibition of in vivo vessel formation by local delivery of human endostatin was accomplished as follows: The plasmid pGT60hEndo, expressing recombinant human endostatin (InvivoGen, San Diego, Calif.), was stably transfected into human embryonic kidney (HEK293) cell line by calcium phosphate transfection (Invitrogen, Carlsbad, Calif.). […] HEK293 cells expressing lacZ served as a control for both Western blots and grafting experiments. The cell implantation procedure was the same as that described above except that 1×10^5 (or 10^4 or 10^3) transfected HEK were mixed with HDMEC-GT immediately prior to implantation. Grafts were examined at both one week and two after injection and sections were analyzed by both micromorphometry and eGFP as previously described.

Where [4] appears, read: listed as recombinant human endostatin.

Entries after “also recorded” stand apart in the source; their conditions may differ.

In the case of “FGF-2: bovine FGF-2 (R&D systems), known pro-angiogenic factor”, the “human vessel density (human type IV collagen micromorphometry), result in words” value in assay [1] is on record as “statistically increased human vessel density”. Further, the “host vessel invasion of Matrigel implants” value in assay [2] was “stimulated; also recorded: marked host vessel invasion”.

With VEGF, the “increased vessel density relative to controls” value in assay [1] (VEGF 2 μg/ml mixed with HDMEC-GT and Matrigel, two weeks after grafting, human type IV collagen micromorphometry) is reported as 20-30%. Moreover, in assay [1], the “human vessel density (human type IV collagen micromorphometry), result in words” value is reported as “increased vessel density; also recorded: did not demonstrate statistical significance”.

B1: endostatin: recombinant human endostatin, 22kD protein expressed by HEK293 cells stably transfected with plasmid pGT60hEndo (HEK293endo) (protein, UniProt P39060 1572-1754, looked up)
Endostatin: HSHRDFQPVLHLVALNSPLSGGMRGIRGADFQCFQQARAVGLAGTFRAFLSSRLQDLYSIVRRADRAAVPIVNLKDELLFPSWEALFSGSEGPLKPGARIFSFDGKDVLRHPTWPQKSVWHGSDPNGRRLTESYCETWRTEAPSATGQASSLLGGRLLGQSAASCHHAYIVLCIENSFMTASK
modifications: Endostatin
Regarding B1, in assay [3], the “vessel density by micromorphometry (human type IV collagen staining)” value is reported as “statistically significant loss of vessel density” and the “vessel density by total fluorescence intensity extracted from binary images of eGFP (Moss Filter)” value is given as “statistically significant loss of vessel density”. In assay [3] (setting [4]), the “vessel density by micromorphometry (human type IV collagen staining)” value is recorded as “decreased microvessel formation” and the “vessel density by total fluorescence intensity extracted from binary images of eGFP (Moss Filter)” value was “decreased microvessel formation”.
